Consider ten molecules from patent publication US9474755B2, “GLP-1 receptor modulators” (Receptos, Inc., priority 2014, dated 2016).

In the assay the target is T1, GLP-1R (Homo sapiens, UniProt P43220).
T1 construct: host or cells: CRE-bla CHO-K1
T1 sequence (P43220 24-463): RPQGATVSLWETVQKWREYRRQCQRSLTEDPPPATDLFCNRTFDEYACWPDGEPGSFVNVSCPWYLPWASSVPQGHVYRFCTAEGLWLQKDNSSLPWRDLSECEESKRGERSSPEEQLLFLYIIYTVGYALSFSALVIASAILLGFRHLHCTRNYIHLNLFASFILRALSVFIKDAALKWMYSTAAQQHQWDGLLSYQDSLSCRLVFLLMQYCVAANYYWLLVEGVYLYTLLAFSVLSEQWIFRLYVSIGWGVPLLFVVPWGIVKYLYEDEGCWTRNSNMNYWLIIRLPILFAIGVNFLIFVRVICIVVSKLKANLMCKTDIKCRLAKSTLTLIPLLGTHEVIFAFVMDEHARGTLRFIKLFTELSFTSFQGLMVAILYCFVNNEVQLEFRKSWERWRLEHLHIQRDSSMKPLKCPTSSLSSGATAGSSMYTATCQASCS
T1 sequence (P01275 100-127 partner limits assumed): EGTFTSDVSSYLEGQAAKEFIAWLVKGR
The assay can be described thus: EC20 GLP-1(9-36) PAM cAMP Assay: dose response of compound in the presence of fixed concentration of GLP-1(9-36). It counts as cell-based. The settings on record: GLP-1R CRE-bla CHO-K1 cells, in presence of fixed concentration of GLP-1(9-36), 30 min at 37° C. In short, it runs like this:
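GLP-1R CRE-bla CHO-K1 cells in HBSS/10 mM Hepes/0.1% BSA, pH 7.4, with IBMX were given a 12-point compound dose-response plus a fixed EC20 level of GLP-1(9-36) for 30 min at 37° C. cAMP was measured by luminescence, converted via a standard curve, and EC50 and Emax were fitted by non-linear regression.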
As for `CC(C)(C)c1ccc(C(=O)N[C@@H](Cc2ccc(-c3ncc(C4=CCC([C@H]5CC[C@H](C)CC5)CC4)cn3)cc2)C(=O)N2CC(C(=O)O)C2)s1` (mixture of isomers) [Compound 44, 1-((S)-2-(5-(tert-butyl)thiophene-2-carboxamido)-3-(4-(5-((1RS,1′r,4′RS)-4′-methyl-[1,1′-bi(cyclohexan)]-3-en-4-yl)pyrimidin-2-yl)phenyl)propanoyl)azetidine-3-carboxylic acid], the EC50 is less than 500 nM.
As for `CCCC1CCC(C2CC=C(c3cnc(-c4ccc(C[C@H](NC(=O)c5ccc(C6CC6)cc5)C(=O)N5CC(C(=O)O)C5)cc4)nc3)CC2)CC1` (stereo partly shown) [Compound 24], the EC50 was less than 500 nM.
For `CCCC1CCC(C2CC=C(c3cnc(-c4ccc(C[C@H](NC(=O)c5ccc(CC(C)C)s5)C(=O)N5CC(C(=O)O)C5)cc4)nc3)CC2)CC1` (stereo partly shown) [Compound 32], the EC50 is less than 500 nM.
The value for `CCCC1CCC(C2CCC(c3cnc(-c4ccc(C[C@H](NC(=O)c5cnn(C(C)(C)C)c5)C(=O)N5CC(C(=O)O)C5)cc4)nc3)CC2)CC1` (stereo partly shown) [Compound 18] was 5000 to 10000 nM; that for `C[C@@H](NC(=O)[C@H](Cc1ccc(-c2ncc(C3=CC(=O)CC(c4ccccc4)C3)cn2)cc1)NC(=O)c1ccc(C(C)(C)C)s1)C(=O)O` (stereo partly shown) [Compound 49] was 5000 to 10000 nM; that for `CCCCCC1CC=C(c2cnc(-c3ccc(C[C@H](NC(=O)c4ccc(C(C)(C)C)s4)C(=O)N[C@H](C)C(=O)O)cc3)nc2)CC1` (stereo partly shown) [Compound 53] was 500 to 2500 nM.
`CCC1CC=C(c2cnc(-c3ccc(C[C@H](NC(=O)c4ccc(C(C)(C)C)s4)C(=O)N[C@H](C)C(=O)O)cc3)nc2)CC1` (stereo partly shown) [Compound 51]: the EC50 was in the range of 500 to 2500 nM.
For the molecule `CCCC1CCC(C2CCC(c3cnc(-c4ccc(C[C@H](NC(=O)c5ccc(C6(C)CC6)cc5)C(=O)N5CC(C(=O)O)C5)cc4)nc3)CC2)CC1` (stereo partly shown) [Compound 25], the concentration giving a half-maximal response (EC50) was in the range of 2500 to 5000 nM.
Next, `CC(C)(C)c1ccc(C(=O)N[C@@H](Cc2ccc(-c3ncc(C4=CCC([C@H]5CC[C@H](C)CC5)CC4)cn3)cc2)C(=O)N2CCC[C@H]2C(=O)O)s1` (stereo partly shown) [Compound 111]: less than 500 nM; `CCCC1CCC(C2CC=C(c3cnc(-c4ccc(C[C@H](NC(=O)c5ccc(C(C)(C)C)s5)C(=O)O)cc4)nc3)CC2)CC1` (stereo partly shown) [Compound 9]: 500 to 2500 nM.
